Reference: the supplement of paper PMC10331698
± gives the standard deviation of the averaged measurements.

Key:
Assay in all cases: level (log10 ratio to DMSO vehicle control); higher = higher biomarker level / cell amount than vehicle control
Settings in all cases: in DMSO
[1] = compound: FC(F)(F)C(F)(F)C(F)(F)CI [Heptafluorobutyl iodide]
Procedure: (§1)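 BioMAP Diversity Plus panel of 12 human primary cell co-culture systems (3C, 4H, LPS, SAg, BT, BF4T, BE3C, CASM3C, HDF3CGF, KF3CT, MyoF, Mphg). Compounds were added 1 h before stimulation and left for 24 h (MyoF 48 h; BT 72 h for soluble read-outs or 6 d for IgG). Biomarkers were read by ELISA, cytotoxicity by SRB, PBMC viability and proliferation by Alamar Blue. Each well value was divided by the mean of 8 DMSO control wells on the same plate and log10 transformed; duplicate blinded samples were tested at 4 concentrations.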

[2] = compound: O=C(O)C=CC(F)(C(F)(F)F)C(F)(F)F [3-(Perfluoroisopropyl)-2-propenoic acid]
Procedure: as §1

[3] = compound: FC(F)(F)C(F)(F)C(F)(F)C(F)(F)C(F)(F)C(F)(F)CC1CO1 [3-(Perfluorohexyl)-1,2-epoxypropane]
Procedure: as §1

[4] = compound: OCC(F)(F)C(F)(F)C(F)(F)CO [Hexafluoroamylene glycol]
Procedure: as §1

[5] = compound: NC(=O)C(F)(F)C(F)(F)C(F)(F)C(F)F
Procedure: as §1

[6] = compound: O=S(=O)(O)CCC(F)(F)C(F)(F)C(F)(F)C(F)(F)C(F)(F)C(F)(F)F [6:2 Fluorotelomer sulfonic acid]
Procedure: as §1

[7] = compound: COC(=O)C(F)(F)C(F)(F)OC(F)(C(F)(F)F)C(F)(F)OC(F)=C(F)F [Methyl perfluoro(3-(1-ethenyloxypropan-2-yloxy)propanoate)]
Procedure: as §1

| Test System | level (log10) ([1]; 6700 nM) | level (log10) ([1]; 20000 nM) | level (log10) ([1]; 60000 nM) | level (log10) ([2]; 6700 nM) | level (log10) ([2]; 20000 nM) | level (log10) ([2]; 60000 nM) | level (log10) ([3]; 6700 nM) | level (log10) ([3]; 20000 nM) | level (log10) ([3]; 60000 nM) | level (log10) ([4]; 6700 nM) | level (log10) ([4]; 20000 nM) | level (log10) ([4]; 60000 nM) | level (log10) ([5]; 6700 nM) | level (log10) ([5]; 20000 nM) | level (log10) ([5]; 60000 nM) | level (log10) ([6]; 6700 nM) | level (log10) ([6]; 20000 nM) | level (log10) ([6]; 60000 nM) | level (log10) ([7]; 6700 nM) | level (log10) ([7]; 20000 nM) |
| --- | --- | --- | --- | --- | --- | --- | --- | --- | --- | --- | --- | --- | --- | --- | --- | --- | --- | --- | --- | --- |
| BE3C:CD54/ICAM-1 | 0.013 ± 0.021 | 0.005 ± 0.0071 | 0.0085 ± 0.0078 | 0.002 ± 0.0057 | -0.005 | 0.004 ± 0.0071 | 0.0035 ± 0.00071 | 0 ± 0.0071 | -0.0005 ± 0.005 | 0.007 ± 0.016 | 0.002 ± 0.0057 | -0.001 ± 0.0014 | -0.006 ± 0.0042 | -0.002 ± 0.0042 | 0.0155 ± 0.016 | -0.006 ± 0.0085 | -0.0145 ± 0.005 | -0.04 ± 0.023 | -0.0205 ± 0.005 | -0.017 ± 0.0014 |
| BE3C:CD87/uPAR | 0.0115 ± 0.033 | -0.0435 ± 0.016 | -0.001 ± 0.0057 | 0.005 ± 0.0085 | 0.002 ± 0.045 | 0.052 ± 0.038 | 0.0085 ± 0.029 | 0.032 ± 0.037 | 0.06 ± 0.0028 | -0.0205 ± 0.011 | -0.016 ± 0.037 | 0.0025 ± 0.022 | -0.02 ± 0.011 | -0.0205 ± 0.0035 | -0.0145 ± 0.015 | 0.003 ± 0.0014 | -0.0065 ± 0.011 | 0.0235 ± 0.018 | 0.038 ± 0.038 | 0.05 ± 0.041 |
| BE3C:CXCL8/IL-8 | 0.029 ± 0.04 | 0.008 ± 0.037 | 0.021 ± 0.021 | -0.0015 ± 0.035 | 0.003 ± 0.0057 | 0.0545 ± 0.059 | 0.0215 ± 0.04 | 0.01 ± 0.031 | 0.0605 ± 0.015 | -0.001 ± 0.031 | -0.003 ± 0.025 | 0.013 ± 0.034 | 0.025 ± 0.035 | 0.0405 ± 0.0078 | 0.0565 ± 0.04 | 0.021 ± 0.031 | -0.001 ± 0.021 | 0 ± 0.021 | 0.0495 ± 0.0021 | 0.09 ± 0.013 |
| BE3C:CXCL9/MIG | -0.002 ± 0.0099 | -0.002 ± 0.0014 | 0.0065 ± 0.018 | 0.0135 ± 0.015 | 0.016 ± 0.017 | 0.0235 ± 0.013 | 0.0095 ± 0.018 | 0.0185 ± 0.016 | 0.023 ± 0.0057 | -0.003 ± 0.0085 | -0.0055 ± 0.0035 | 0.0025 ± 0.011 | 0.012 ± 0.024 | 0.009 ± 0.0071 | 0.006 ± 0.0085 | -0.005 ± 0.0014 | -0.004 ± 0.0042 | 0.0015 ± 0.011 | -0.0035 ± 0.0035 | -0.019 ± 0.0099 |
| BE3C:CXCL10/IP-10 | -0.0015 ± 0.0064 | -0.005 ± 0.0057 | 0.005 ± 0.013 | 0.0055 ± 0.0035 | 0.004 ± 0.0099 | 0.009 ± 0.0014 | 0.001 ± 0.0057 | 0.001 ± 0.017 | 0.018 ± 0.0014 | -0.009 ± 0.014 | -0.0115 ± 0.011 | -0.007 ± 0.02 | 0.0025 ± 0.0064 | -0.0015 ± 0.016 | 0.007 ± 0.013 | 0.0015 ± 0.0021 | -0.0095 ± 0.0078 | -0.0125 ± 0.018 | -0.02 ± 0.013 | -0.054 ± 0.013 |
| BE3C:CXCL11/I-TAC | 0.005 ± 0.048 | -0.0175 ± 0.005 | 0.0245 ± 0.025 | -0.0175 ± 0.0078 | -0.009 ± 0.0057 | 0.005 ± 0.011 | -0.0115 ± 0.011 | -0.02 ± 0.011 | -0.009 ± 0.014 | 0.002 ± 0.021 | 0.013 ± 0.045 | 0.035 ± 0.018 | 0.005 ± 0.0028 | -0.002 ± 0.0042 | 0.002 ± 0.0057 | 0.037 ± 0.028 | 0.0585 ± 0.00071 | 0.067 ± 0.018 | -0.038 ± 0.024 | -0.192 ± 0.025 |
| BE3C:EGFR | -0.015 ± 0.017 | -0.019 ± 0.0071 | 0.0015 ± 0.005 | 0.0005 ± 0.016 | 0.0085 ± 0.00071 | 0.004 ± 0.0014 | -0.001 ± 0.0085 | -0.0015 ± 0.0035 | 0.007 ± 0.013 | 0.0035 ± 0.005 | -0.0115 ± 0.0078 | 0.009 ± 0.0071 | 0.0055 ± 0.019 | 0.0065 ± 0.032 | -0.008 ± 0.0099 | -0.0075 ± 0.00071 | -0.027 ± 0.0085 | -0.0095 ± 0.0064 | -0.04 ± 0.014 | -0.053 ± 0.031 |
| BE3C:IL-1alpha | 0.0015 ± 0.037 | -0.0225 ± 0.019 | -0.001 ± 0.014 | -0.001 ± 0.031 | -0.0065 ± 0.0064 | 0.0025 ± 0.005 | -0.0215 ± 0.0021 | -0.003 | 0 ± 0.0014 | -0.002 ± 0.0085 | 0.002 | 0.0135 ± 0.0092 | 0.0235 ± 0.016 | -0.008 ± 0.0085 | 0.015 ± 0.065 | -0.0095 ± 0.021 | -0.005 ± 0.0099 | -0.0005 ± 0.0078 | -0.0175 ± 0.005 | -0.005 ± 0.011 |
| BF4T:CCL2/MCP-1 | 0.0025 ± 0.028 | 0.068 ± 0.11 | 0.046 ± 0.023 | 0.0045 ± 0.023 | 0.003 ± 0.013 | 0.0505 ± 0.076 | -0.003 ± 0.028 | -0.007 ± 0.028 | 0.017 ± 0.028 | 0.013 ± 0.013 | 0.0145 ± 0.016 | 0.039 ± 0.045 | 0.008 ± 0.0042 | -0.0135 ± 0.0092 | 0.0165 ± 0.047 | 0.0035 ± 0.0064 | -0.024 ± 0.028 | -0.0335 ± 0.069 | 0.041 ± 0.033 | -0.152 ± 0.32 |
| BF4T:CCL26/Eotaxin-3 | -0.0245 ± 0.005 | 0.002 ± 0.023 | 0.048 ± 0.023 | -0.0085 ± 0.057 | -0.005 ± 0.013 | 0.0165 ± 0.029 | -0.0225 ± 0.076 | -0.016 ± 0.065 | 0.001 ± 0.0042 | 0.003 ± 0.051 | 0.002 ± 0.0071 | 0.0395 ± 0.042 | -0.001 ± 0.0085 | -0.012 ± 0.033 | 0.0005 ± 0.018 | 0.001 ± 0.018 | -0.0535 ± 0.011 | -0.08 ± 0.078 | -0.007 | -0.069 ± 0.014 |
| BF4T:CD90 | 0.003 ± 0.018 | -0.009 ± 0.0028 | 0.001 ± 0.017 | -0.0005 ± 0.013 | -0.0105 ± 0.0035 | 0.018 ± 0.0028 | -0.005 ± 0.0042 | -0.0055 ± 0.0092 | 0.0085 ± 0.028 | -0.012 ± 0.0028 | -0.017 | -0.004 ± 0.011 | -0.002 ± 0.0085 | -0.0125 ± 0.0092 | 0.001 ± 0.0028 | -0.029 ± 0.017 | -0.028 ± 0.0085 | -0.031 ± 0.0042 | -0.004 ± 0.017 | -0.0045 ± 0.0078 |
| BF4T:CD106/VCAM-1 | -0.016 ± 0.0057 | -0.021 ± 0.0042 | 0.017 ± 0.045 | -0.0095 ± 0.04 | -0.0275 ± 0.025 | 0.0225 ± 0.019 | 0.0195 ± 0.0021 | 0.017 ± 0.0028 | 0.0275 ± 0.028 | -0.0015 ± 0.023 | 0.0045 ± 0.023 | 0.034 ± 0.025 | -0.015 ± 0.0028 | -0.014 ± 0.0042 | -0.003 ± 0.023 | -0.0125 ± 0.04 | -0.0315 ± 0.0035 | -0.022 ± 0.057 | -0.007 ± 0.071 | -0.091 ± 0.025 |
| BF4T:CXCL8/IL-8 | 0.0085 ± 0.029 | 0.061 ± 0.11 | 0.0505 ± 0.063 | 0.0055 ± 0.012 | -0.0015 ± 0.0064 | 0.001 ± 0.021 | 0.013 ± 0.02 | -0.02 ± 0.028 | 0.0075 ± 0.0064 | -0.018 | -0.002 ± 0.0014 | 0.0175 ± 0.033 | 0 ± 0.0071 | -0.0105 ± 0.005 | -0.009 ± 0.0071 | 0.069 ± 0.058 | 0.0625 ± 0.044 | 0.0805 ± 0.057 | 0.0395 ± 0.016 | 0.095 ± 0.0099 |
| BF4T:IL-1alpha | -0.017 ± 0.016 | -0.0125 ± 0.0035 | -0.015 ± 0.05 | -0.002 ± 0.021 | 0.0065 ± 0.011 | 0.012 ± 0.0057 | 0.003 ± 0.0071 | -0.0135 ± 0.005 | 0.013 ± 0.028 | -0.001 ± 0.014 | -0.0175 ± 0.0035 | 0.0075 ± 0.029 | -0.0175 ± 0.021 | -0.004 ± 0.0028 | -0.002 ± 0.0057 | 0.006 ± 0.0085 | 0.0005 ± 0.0092 | 0.023 ± 0.018 | -0.002 ± 0.0014 | 0.0105 ± 0.023 |
